Experimental data from PMC6445170, “VEGFR-2 inhibitors and apoptosis inducers: synthesis and molecular design of new benzo[g]quinazolin bearing benzenesulfonamide moiety” (Journal of Enzyme Inhibition and Medicinal Chemistry, 2017).

Target: T1, VEGFR-2 (Homo sapiens, UniProt P35968)
T1 construct: gene KDR; not described; endogenous activity said to be determined in MCF-7 cells, but compounds were incubated with 'enzyme' (AlphaScreen)
Assay: AlphaScreen kinase assay, phosphotyrosine antibody
Type: cell-based
Settings: 5 min preincubation, room temperature; VEGFR-2 activity determined in MCF-7 cells
Description: AlphaScreen kinase assay, phosphotyrosine antibody on VEGFR-2

T1 sequence (P35968 20-1356): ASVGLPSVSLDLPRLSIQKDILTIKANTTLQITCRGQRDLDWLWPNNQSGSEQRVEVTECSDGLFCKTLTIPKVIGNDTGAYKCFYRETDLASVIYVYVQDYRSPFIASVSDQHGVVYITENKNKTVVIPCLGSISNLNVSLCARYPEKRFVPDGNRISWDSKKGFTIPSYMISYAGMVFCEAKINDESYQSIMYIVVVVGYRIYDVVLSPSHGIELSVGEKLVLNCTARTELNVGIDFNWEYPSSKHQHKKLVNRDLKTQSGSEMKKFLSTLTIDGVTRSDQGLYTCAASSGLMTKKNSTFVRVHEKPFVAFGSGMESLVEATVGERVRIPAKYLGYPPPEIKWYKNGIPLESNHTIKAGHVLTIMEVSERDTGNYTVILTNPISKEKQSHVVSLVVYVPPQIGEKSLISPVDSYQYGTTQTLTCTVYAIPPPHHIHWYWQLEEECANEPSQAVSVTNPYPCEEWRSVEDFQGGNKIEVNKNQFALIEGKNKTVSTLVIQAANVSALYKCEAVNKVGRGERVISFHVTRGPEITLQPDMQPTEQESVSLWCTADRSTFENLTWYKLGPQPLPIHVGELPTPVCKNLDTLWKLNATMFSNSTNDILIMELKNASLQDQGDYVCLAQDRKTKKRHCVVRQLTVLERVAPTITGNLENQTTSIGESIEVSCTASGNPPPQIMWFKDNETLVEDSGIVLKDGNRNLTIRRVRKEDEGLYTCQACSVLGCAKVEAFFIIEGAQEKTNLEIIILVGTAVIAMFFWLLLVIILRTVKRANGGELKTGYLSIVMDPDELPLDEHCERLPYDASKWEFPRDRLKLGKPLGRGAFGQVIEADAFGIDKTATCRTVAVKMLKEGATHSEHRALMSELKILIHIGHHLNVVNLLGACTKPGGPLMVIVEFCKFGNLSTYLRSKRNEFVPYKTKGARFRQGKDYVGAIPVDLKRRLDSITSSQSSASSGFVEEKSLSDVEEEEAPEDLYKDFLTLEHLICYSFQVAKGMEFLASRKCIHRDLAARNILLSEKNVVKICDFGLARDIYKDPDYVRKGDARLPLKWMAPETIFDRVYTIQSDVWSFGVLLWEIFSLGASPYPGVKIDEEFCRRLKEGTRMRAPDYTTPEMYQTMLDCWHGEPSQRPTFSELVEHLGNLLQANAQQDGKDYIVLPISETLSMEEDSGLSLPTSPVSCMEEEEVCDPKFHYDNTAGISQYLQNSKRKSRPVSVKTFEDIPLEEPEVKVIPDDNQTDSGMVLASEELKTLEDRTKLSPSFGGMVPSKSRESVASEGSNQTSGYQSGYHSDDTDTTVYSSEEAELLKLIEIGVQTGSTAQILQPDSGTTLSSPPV

% Inhibition of VEGFR-2 enzyme [%]	Structure (SMILES)
68.44	NNC(=O)CSc1nc2cc3ccccc3cc2c(=O)n1-c1ccc(S(N)(=O)=O)cc1 [compound 5, 4-(2-(2-Hydrazinyl-2-oxoethylthio)-4-oxobenzo[g]quinazolin-3(4H)-yl)benzenesulfonamide]
69.95	Cc1ccc(C)c(C=NNC(=O)CSc2nc3cc4ccccc4cc3c(=O)n2-c2ccc(S(N)(=O)=O)cc2)c1 [compound 6, 4-(2-(2-(2-(2,5-Dimethylbenzylidene)hydrazinyl)-2-oxoethylthio)-4-oxobenzo[g]quinazolin-3(4H)-yl)benzenesulfonamide]
64.89	NS(=O)(=O)c1ccc(-n2c(SCC(=O)NN=Cc3ccc(Br)cc3)nc3cc4ccccc4cc3c2=O)cc1 [compound 10, 4-(2-(2-(2-(4-Bromobenzylidene)hydrazinyl)-2-oxoethylthio)-4-oxobenzo[g]quinazolin-3(4H)-yl)benzenesulfonamide]
71.29	NS(=O)(=O)c1ccc(-n2c(SCC(=O)NN=Cc3ccc4c(c3)OCO4)nc3cc4ccccc4cc3c2=O)cc1 [compound 11, 4-(2-(2-(2-(Benzo[d][1,3]dioxol-5-ylmethylene)hydrazinyl)-2-oxoethylthio)-4-oxobenzo[g]quinazolin-3(4H)-yl)benzenesulfonamide]

Same assay, conditions: 5 min preincubation, room temperature; VEGFR-2 activity determined in MCF-7 cells; inhibitor concentration not stated

% Inhibition of VEGFR-2 enzyme [%]	Structure (SMILES)
72.19	Cc1ccc(C=NNC(=O)CSc2nc3cc4ccccc4cc3c(=O)n2-c2ccc(S(N)(=O)=O)cc2)cc1F [compound 7, 4-(2-(2-(2-(3-Fluoro-4-methylbenzylidene)hydrazinyl)-2-oxoethylthio)-4-oxobenzo[g]quinazolin-3(4H)-yl)benzenesulfonamide]

Same assay, conditions: 5 min preincubation, room temperature; VEGFR-2 activity determined in MCF-7 cells; read-out: IC50 on VEGFR-2 enzyme (μm)

IC50 [nM]	Structure (SMILES)
830	CCOC(=O)c1cnn(C(=O)CSc2nc3cc4ccccc4cc3c(=O)n2-c2ccc(S(N)(=O)=O)cc2)c1N [compound 22, Ethyl 5-amino-1-(2-(4-oxo-3-(4-sulfamoylphenyl)-3,4-dihydrobenzo[g]quinazolin-2-ylthio)acetyl)-1H-pyrazole-4-carboxylate]
640	NS(=O)(=O)c1ccc(-n2c(SCC(=O)NN=Cc3ccc(Cl)cc3Cl)nc3cc4ccccc4cc3c2=O)cc1 [compound 9, 4-(2-(2-(2-(2,4-Dichlorobenzylidene)hydrazinyl)-2-oxoethylthio)-4-oxobenzo[g]-quinazolin-3(4H)-yl)benzenesulfonamide]
860	NS(=O)(=O)c1ccc(-n2c(SCC(=O)N3NC(=O)CC3=O)nc3cc4ccccc4cc3c2=O)cc1 [compound 20, 4-(2-(2-(3,5-Dioxopyrazolidin-1-yl)-2-oxoethylthio)-4-oxobenzo[g]quinazolin-3(4H)-yl) benzenesulfonamide]
1040	Cc1nn(C(=O)CSc2nc3cc4ccccc4cc3c(=O)n2-c2ccc(S(N)(=O)=O)cc2)c(N)c1C#N [compound 23, 4-(2-(2-(5-Amino-4-cyano-3-methyl-1H-pyrazol-1-yl)-2-oxoethylthio)-4-oxobenzo[g]quinazo-lin-3(4H)-yl) benzenesulfonamide]
